Data published in patent US20120122787A1, “METHODS FOR TREATING POLYCYSTIC KIDNEY DISEASE (PKD) OR OTHER CYST FORMING DISEASES” (priority 2009, published 2012).

Columns and labels:
[1] = tested on: PCK rat (a recessive PKD model); conditions: Wang et al., 2008; cited from earlier work
[2] = tested on: HDAC5 phosphorylation (Ser489); experiment: HDAC5 phosphorylation immunoblot in MEK cells without or with fluid flow; format: cell-based, mouse; conditions: for fluid flow-induced HDAC5 phosphorylation: fluid flow 0.2 ml/min, GÖ6983 10 μM, GdCl3 20 μM; for HDAC5 phosphorylation in the absence of fluid flow: no fluid flow, PMA 100 nM, ionomycin 1 μM, phospho-specific antibody
Experimental: (§1) Confluent mouse embryonic kidney (MEK) cells were cultured for 1-2 additional days in the absence of interferon-γ to induce optimal differentiation (Nauli et al., 2003). Hanks' Balanced Salt Solution with 20.0 mM HEPES buffer (pH 7.4) and 1% bovine serum albumin was used for calcium imaging and cell culture media for the other experiments. Fluid flow was applied at 0.2 ml/min using a peristaltic pump in 35 mm dishes or 6-well plates, with tubings connected through two 18 Gauge needles at opposing sides of a well (FIG. 9A). Time-lapse imaging was performed on an Axiovert 200M inverted microscope (Karl Zeiss Microlmaging Inc., Thornwood, N.Y.) equipped with a 20×/0.8 NA Plan-Apochromat objective, a Pecon XL-3 environmental chamber (PeCon GmbH, Erbach, Germany) and an AxioCam HSm r1.1 digital monochrome camera (Karl Zeiss). In drug treatments, […] (Sigma-Aldrich, St. Louis, Mo.) was used at 100 nM, GÖ6983 (Sigma-Aldrich) at 10 μM, ionomycin (Sigma-Aldrich) at 1 μM, and GdCl3 (Sigma-Aldrich) at 20 μM.
Whether fluid flow across monolayers of MEK cells led to endogenous HDAC5 phosphorylation was determined using a phospho-specific antibody against HDAC5 Ser489 site (equivalent of Ser498 of human HDAC5) (Bossuyt et al., 2008). While HDAC5 phosphorylation level was low prior to fluid flow onset, an increase in phosphorylation was observed 30 minutes after the start of fluid flow and maintained for several hours thereafter (FIGS. 1A and 1B). The increase in HDAC5 phosphorylation was accompanied by an increase in the level of total HDAC5 (FIGS. 12A, C), consistent with the flow-induced gene expression of HDAC5 observed in the microarray analysis (Table 2). […] By contrast, HDAC5 phosphorylation was induced by the calcium ionophore, ionomycin, in the absence of fluid flow (FIG. 1D, see also FIG. 20 for the quantification of HDAC5 phosphorylation levels under various conditions). Treatment with PMA, an activator of protein kinase C(PKC), stimulated HDAC5 phosphorylation in the absence of fluid flow, while the PKC inhibitor GÖ6983 inhibited flow-induced HDAC5 phosphorylation (FIGS. 1D and 20).

HDAC5 nuclear export = experiment: HDAC5-GFP nuclear export in transfected MEK cells; format: cell-based, mouse; conditions: for fluid flow-induced HDAC5 nuclear export: GÖ6983 10 μM, GdCl3
Experimental: as §1
To determine whether HDAC5 was exported from the nucleus in response to fluid flow, FLAG-MEF2C and HDAC5-GFP constructs were co-transfected into Pkd1^+/+ and Pkd1^−/− MEK cells, and both tagged proteins correctly localized to the nucleus. Stimulation of MEK cells with fluid flow for 30 min led to translocation of HDAC5-GFP, but not FLAG-MEF2C, from the nucleus in Pkd1^+/+. MEK cells, but not in Pkd1^−/− MEK cells (FIG. 2A). […] By contrast, a HDAC5-GFP mutant lacking the 14-3-3 phosphorylation sites (HDAC5^S250/489A) was not exported (FIG. 2C), consistent with a requirement for phosphorylation of these regulatory sites in fluid flow-induced nuclear export of HDAC5. HDAC5 nuclear export also failed in Pkd1^−/− MEK cells, cells treated with GdCl3 (FIG. 2C), or the PKC inhibitor GÖ6983, while treatment with PMA stimulated HDAC5 nuclear exit even without fluid flow (FIG. 2D).

PKD^ws25/− mice = experiment: SAHA treatment of PKDws25/− mice (mouse model of PKD); conditions: 4 weeks
Experimental: PKD^ws25/− mice (Wu et al., 1998) were obtained from Albert Einstein College of Medicine (Bronx, N.Y.). PKD^ws25/− mice escape the embryonic lethality of the PKD^−/− phenotype, but recapitulate the human ADPKD phenotype in that they develop cysts early in life (Wu et al., 1998). Eight week old PKD^ws25/− mice (n=15 per group) were treated with 100 mg/kg vorinostat (SAHA) or vehicle (Veh). Animals were dosed daily by i.p. for 5 days followed by 2 days off, for a total of 4 weeks. […] At the end of study, animals were sacrificed and blood taken for analysis of blood urea nitrogen (BUN) levels using the manufacturer's protocol for Hitachi Urea Nitrogen (BUN) Reagent Set (Pointe Scientific, Inc., Canton, Mich.).

Pkd2−/− embryos = experiment: TSA injection of pregnant Pkd2+/- mice, histology of E18.5 embryonic kidneys; format: in vivo, mouse
Experimental: (§2) Pkd2^+/− mice were originally provided by S. Somlo (Yale University, New Haven, Conn.) and Hdac5^−/− mice by E. Olson (University of Texas Southwestern Medical Center, Dallas, Tex.). To obtain embryos of various genotypes, the mutant mice were paired and the pregnant females were sacrificed on 18.5 DPC to collect embryonic kidneys. For TSA treatment experiments pregnant Pkd2^+/− females paired with Pkd2^+/− males were subcutaneously injected daily, from 10.5 dpc to 18.5 dpc with 0.5 μg TSA (Biomol, Enzo Life Sciences Inc., Farmingdale, N.Y.) per gram mouse body weight or DMSO (solvent of TSA) in phosphate buffered saline (PBS). At the end of this treatment, females were sacrificed and embryonic kidneys were collected.
(§3) To test further the possibility that reducing the activity of HDAC5 could suppress cyst formation in Pkd2^−/− embryos, trichostatin A (TSA), a chemical inhibitor against type I and II HDACs (Drummond et al., 2005), was injected into pregnant Pkd2+/− female mice from 10.5 dpc after mating with Pkd2+/− males, and embryonic kidneys were analyzed at 18.5 dpc.

MEF2C = experiment: Immunoblot of MEF2C in Pkd2−/− embryonic kidneys from TSA-treated mothers; format: in vivo, mouse; conditions: TSA-treated vs DMSO-treated mothers
Experimental: as §2, §3

MIM = experiment: Immunoblot of MIM in Pkd2−/− embryonic kidneys from TSA-treated mothers; format: in vivo, mouse; conditions: TSA-treated vs DMSO-treated mothers
Experimental: as §2, §3

1-deamino-8-D-arginine vasopressin [dDAVP]
effect on cystic disease [1]: aggravated cystic disease

[Cl][Gd]([Cl])[Cl] [GdCl3]
fluid flow-induced HDAC5 phosphorylation [2]: blocked | fluid flow-induced HDAC5 nuclear export (HDAC5 nuclear export): failed

COc1ccc2c(c1)c(C1=C(c3c[nH]c4ccccc34)C(=O)NC1=O)cn2CCCN(C)C [GÖ6983]
fluid flow-induced HDAC5 phosphorylation [2]: inhibited | fluid flow-induced HDAC5 nuclear export (HDAC5 nuclear export): failed

CCCCCCCCCCCCCC(=O)O[C@@H]1[C@@H](C)[C@@]2(O)[C@@H](C=C(CO)C[C@]3(O)C(=O)C(C)=C[C@@H]23)[C@@H]2C(C)(C)[C@]12OC(C)=O [PMA, 12-myristate 13-acetate]
HDAC5 phosphorylation in the absence of fluid flow [2]: stimulated | HDAC5 nuclear exit without fluid flow (HDAC5 nuclear export; no fluid flow, 100 nM PMA): stimulated

O=C(CCCCCCC(=O)Nc1ccccc1)NO [SAHA, suberoylanilide hydroxamic acid]
blood urea nitrogen (BUN) levels (PKD^ws25/− mice; 100 mg/kg i.p. daily 5 days on, 2 days off, compared to vehicle): significantly lower | animals lost (PKD^ws25/− mice; 100 mg/kg i.p., n=15 per group): one | renal tubular epithelial morphology (PKD^ws25/− mice; 100 mg/kg i.p., kidney images vs control): well organized, nearly normal epithelial morphology

CC(/C=C/C(=O)NO)=C\[C@@H](C)C(=O)c1ccc(N(C)C)cc1 [TSA, trichostatin A]
kidney cyst formation in Pkd2−/− embryos (Pkd2−/− embryos; 0.5 μg TSA per gram body weight s.c. daily to mothers 10.5-18.5 dpc, compared to DMSO-injected mothers): drastically reduced | morphology of renal tubules in Pkd2+/+ embryonic kidneys (Pkd2−/− embryos; Pkd2+/+ embryos from TSA-injected mothers): did not affect | morphology of cyst lining cells in Pkd2−/− kidneys (Pkd2−/− embryos; TSA-treated mothers, as opposed to flat morphology of Pkd2−/− cyst lining cells): more normal cuboidal morphology | enhancement of expression of MEF2C (MEF2C): 4 fold | expression of MIM (MIM): drastically increased

C[C@H](CCC(=O)O)C[C@H](C)C[C@H](C)C(=O)/C=C(\O)[C@H](C)C[C@H](C)C/C=C/[C@@H](C)[C@@H](O)[C@@H](C)[C@@H](O)C[C@@H]1CC[C@@](C)([C@H]2CC[C@@](C)([C@@H](C)O)O2)O1 [ionomycin]
HDAC5 phosphorylation in the absence of fluid flow [2]: induced
